target: CBP (Homo sapiens (Human), UniProt Q92793); experiment: In vitro CBP inhibition (AlphaScreen, biotinylated H4-tetraacetyl peptide); assay type: binding; conditions: not given
Outline: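 His-tagged CBP expressed in E. coli (50 nM final) incubated with biotinylated H4K5/8/12/16(Ac) peptide (20 nM final) in 50 mM HEPES pH 7.3, 10 mM NaCl, 0.25 mM TCEP, 0.1% BSA, 0.005% Brij-35, 0.4% DMSO, 20 min at room temp.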

Sequence of CBP (Q92793 1081-1197): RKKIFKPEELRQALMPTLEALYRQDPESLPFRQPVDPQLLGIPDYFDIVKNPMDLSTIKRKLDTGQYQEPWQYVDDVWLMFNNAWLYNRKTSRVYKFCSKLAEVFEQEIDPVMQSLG

Structure (SMILES) | IC50 [nM]
Cn1cc(-c2cnn(C(c3ccccc3)C3CC3)c2)ccc1=O (stereo not drawn) [Example 2] | 500 to 5000

same assay, conditions: AlphaScreen, Table 29; read-out: CBP IC50

IC50 [nM] | Structure (SMILES)
< 500 | CN(C)CCCOc1ccc(-c2cc(=O)n(C)cc2-c2cnn(-c3ccccc3C#N)c2)cn1 [Example 355, 2-(4-(6-(3-(dimethylamino)propoxy)-1′-methyl-6′-oxo-1′,6′-dihydro-[3,4′-bipyridin]-3′-yl)-1H-pyrazol-1-yl)benzonitrile]
< 500 | Cn1cc(-c2cnn(CC3CC3(F)F)c2)c(-c2ccccc2)cc1=O (stereo not drawn) [Example 190, 5-[1-(2,2-Difluoro-cyclopropylmethyl)-1H-pyrazol-4-yl]-1-methyl-4-phenyl-1H-pyridin-2-one]
< 500 | Cn1cc(-c2cnn(Cc3ccccc3)c2)c(OCCC(=O)O)cc1=O [Example 166, 3-[5-(1-Benzyl-1H-pyrazol-4-yl)-1-methyl-2-oxo-1,2-dihydro-pyridin-4-yloxy]-propionic acid]
< 500 | Cc1cc(-c2cnn(-c3ccccc3C#N)c2)cn(C)c1=O [Example 254, 2-[4-(1,5-Dimethyl-6-oxo-1,6-dihydro-pyridin-3-yl)-pyrazol-1-yl]-benzonitrile]
< 500 | Cn1cc(-c2cnn(Cc3ccccc3)c2)c(-n2ccc(C#N)c2)cc1=O [Example 80, 1-(5-(1-benzyl-1H-pyrazol-4-yl)-1-methyl-2-oxo-1,2-dihydropyridin-4-yl)-1H-pyrrole-3-carbonitrile]
< 500 | Cn1cc(-c2cnn(-c3cccc(Cl)c3C#N)c2)c(-c2ccc(N3CCCC3)nc2)cc1=O [Example 349, 2-chloro-6-[4-[1-methyl-6-oxo-4-(6-pyrrolidin-1-yl-3-pyridyl)-3-pyridyl]pyrazol-1-yl]benzonitrile]
< 500 | Cn1cc(-c2cnn(Cc3ccccc3)c2)c(-c2cccs2)cc1=O [Example 116, 5-(1-benzyl-1H-pyrazol-4-yl)-1-methyl-4-(thiophen-2-yl) pyridin-2(1H)-one]
< 500 | Cn1cc(-c2cnn(-c3cccc(Cl)c3C#N)c2)c(-c2cnc(NC3CC3)nc2)cc1=O [Example 322, 2-chloro-6-[4-[4-[2-(cyclopropylamino)pyrimidin-5-yl]-1-methyl-6-oxo-3-pyridyl]pyrazol-1-yl]benzonitrile]
< 500 | CC(C)n1cc(-c2cn(C)c(=O)cc2-c2ccccc2)cn1 [Example 138, 5-(1-isopropyl-1H-pyrazol-4-yl)-1-methyl-4-phenylpyridin-2(1H)-one]
< 500 | Cn1cc(-c2cc(=O)n(C)cc2-c2cnn(Cc3ccccc3)c2)cn1 [Example 108, 5-(1-benzyl-1H-pyrazol-4-yl)-1-methyl-4-(1-methyl-1H-pyrazol-4-yl)pyridin-2(1H)-one]
< 500 | CCOc1cc(=O)n(C)cc1-c1cnn(-c2cccc(OC)c2C#N)c1 [Example 177, 2-[4-(4-Ethoxy-1-methyl-6-oxo-1,6-dihydro-pyridin-3-yl)-pyrazol-1-yl]-6-methoxy-benzonitrile]
< 500 | COCCNc1ncc(-c2cc(=O)n(C)cc2-c2cnn(C(C)c3ccccc3)c2)cn1 (stereo not drawn) [Example 312, 4-(2-((2-methoxyethyl)amino)pyrimidin-5-yl)-1-methyl-5-(1-(1-phenylethyl)-1H-pyrazol-4-yl)pyridin-2(1H)-one]
< 500 | Cn1cc(-c2cnn(-c3cccc(Cl)c3C#N)c2)c(-c2cnc(NCC3CC3)nc2)cc1=O [Example 327, 2-chloro-6-(4-(4-(2-((cyclopropylmethyl)amino)pyrimidin-5-yl)-1-methyl-6-oxo-1,6-dihydropyridin-3-yl)-1H-pyrazol-1-yl)benzonitrile]
< 500 | Cn1cc(-c2coc(-c3ccccc3)n2)c(-c2ccccc2)cc1=O [Example 396, 1-methyl-4-phenyl-5-(2-phenyloxazol-4-yl)pyridin-2(1H)-one]
< 500 | Cn1cc(-c2cc(=O)n(C)cc2-c2cnn(-c3ccccc3C(=O)O)c2)cn1 [Example 208, 2-{4-[1-Methyl-4-(1-methyl-1H-pyrazol-4-yl)-6-oxo-1,6-dihydro-pyridin-3-yl]-pyrazol-1-yl}-benzoic acid]
< 500 | CCOc1cc(=O)n(C)cc1-c1cnn(-c2ccccc2C#N)c1 [Example 281, 2-(4-(4-ethoxy-1-methyl-6-oxo-1,6-dihydropyridin-3-yl)-1H-pyrazol-1-yl)benzonitrile]
< 500 | CCNc1ncc(-c2cc(=O)n(C)cc2-c2cnn(-c3cccc(F)c3C#N)c2)cn1 [Example 333, 2-[4-[4-[2-(ethylamino)pyrimidin-5-yl]-1-methyl-6-oxo-3-pyridyl]pyrazol-1-yl]-6-fluoro-benzonitrile]
< 500 | CC(c1ccccc1)n1cc(-c2cn(C)c(=O)cc2OC2CC2)cn1 (stereo not drawn) [Example 59, 4-cyclopropoxy-1-methyl-5-(1-(1-phenylethyl)-1H-pyrazol-4-yl) pyridin-2(1H)-one]
< 500 | CC(C)NC(=O)c1ccn(-c2cc(=O)n(C)cc2-c2cnn(Cc3ccccc3)c2)c1 [Example 82, 1-(5-(1-benzyl-1H-pyrazol-4-yl)-1-methyl-2-oxo-1,2-dihydropyridin-4-yl)-N-isopropyl-1H-pyrrole-3-carboxamide]
< 500 | CNc1ncc(-c2cc(=O)n(C)cc2-c2cnn(-c3ccccc3C#N)c2)cn1 [Example 245, 2-(4-(1-methyl-4-(2-(methylamino)pyrimidin-5-yl)-6-oxo-1,6-dihydropyridin-3-yl)-1H-pyrazol-1-yl)benzonitrile]
< 500 | Cn1cc(-c2cnn(-c3cccc(Cl)c3C#N)c2)c(-c2ccc(NC3CCCC3)nc2)cc1=O [Example 340, 2-chloro-6-(4-(6-(cyclopentylamino)-1′-methyl-6′-oxo-1′,6′-dihydro-[3,4′-bipyridin]-3′-yl)-1H-pyrazol-1-yl)benzonitrile]
< 500 | CCOc1cc(=O)n(C)cc1-c1cn(Cc2ccccc2)nc1[N+](=O)[O-] [Example 185, 5-(1-benzyl-3-nitro-1H-pyrazol-4-yl)-4-ethoxy-1-methylpyridin-2(1H)-one]
< 500 | CC(=O)N1CC(Oc2cc(=O)n(C)cc2-c2cnn(C(C)c3ccccc3)c2)C1 (stereo not drawn) [Example 50, 4-((1-acetylazetidin-3-yl)oxy)-1-methyl-5-(1-(1-phenylethyl)-1H-pyrazol-4-yl)pyridin-2(1H)-one]
< 500 | Cn1cc(-c2cnn(Cc3ccccc3)c2)c2cnccc2c1=O [Example 9, 4-(1-benzyl-1H-pyrazol-4-yl)-2-methyl-2,6-naphthyridin-1(2H)-one]

Structure (SMILES) | IC50 [nM]
CC(c1ccncc1)n1cc(-c2ccc(=O)n(C)c2)cn1 (stereo not drawn) [Example 29, 1-methyl-5-(1-(1-(pyridin-4-yl)ethyl)-1H-pyrazol-4-yl)pyridin-2(1H)-one] | 500 to 5000
CC(C)Oc1cc(=O)n(C)cc1-c1cnn([C@H](C)c2ccccc2)c1 [Example 45, (R)-4-isopropoxy-1-methyl-5-(1-(1-phenylethyl)-1H-pyrazol-4-yl) pyridin-2(1H)-one] | < 500
CCn1cc(-c2cnn(Cc3ccccc3)c2)ccc1=O [Example 10, 5-(1-benzyl-1H-pyrazol-4-yl)-1-ethylpyridin-2(1H)-one] | 500 to 5000
CC(c1ccccc1)n1cc(-c2ccc(=O)n(C)c2)cn1 (stereo not drawn) [Example 12, 1-methyl-5-(1-(1-phenylethyl)-1H-pyrazol-4-yl)pyridin-2(1H)-one] | 500 to 5000
CNNc1cc(=O)n(C)cc1-c1cnn(Cc2ccccc2)c1 [Example 99, 5-(1-benzyl-1H-pyrazol-4-yl)-1-methyl-4-(2-methyl-hydrazinyl)-pyridin-2(1H)-one] | 500 to 5000
